Measured values reported in patent US11951131B2, “Anti-SLAMF7 chimeric antigen receptors” (The United States of America, as represented by the …, priority 2018, dated 2024).

Legend:
NGFR-K562 = experiment: IFN-gamma ELISA, CAR T cells with NGFR-K562 target cells; type: cell-based, human
Excerpt: (§1) MM.1S is a SLAMF7^+ multiple myeloma cell line that was obtained from American Type Culture Collection (ATCC). A549 is a BCMA-negative lung cancer cell line (ATCC). TC71 is a BCMA-negative sarcoma cell line. CCRF-CEM, 293T, and A549 are SLAMF7-negative cell lines (ATCC). COL0207, HepG2, U251, Panc10.05, and TC71 are […] that were kind gifts from Dr. Steven Rosenberg, National Cancer Institute. SLAMF7-K562 are K562 cells (ATCC) which were transduced with the gene for full-length SLAMF7. SLAMF7-RPMI are RPMI8226 cells (ATCC) which were transduced with the gene for full-length SLAMF7. NGFR-K562 are K562 cells which were transduced with the gene for low-affinity nerve growth factor (Kochenderfer et al., J. Immunother., 32(7): 689-702 (2009)). All of the human samples mentioned were obtained from patients enrolled in IRB-approved clinical trials at the National Cancer Institute.
(§2) One-hundred thousand SLAMF7^+ or SLAMF7-negative target cells were combined with 100,000 CAR-transduced T cells in duplicate wells of a 96 well round bottom plate in 200 µL of AIM V™ medium (Invitrogen) plus 5% human serum. The plates were incubated at 37° C. for 18-20 hours. Following the incubation, ELISAs (enzyme-linked immunosorbent assays) for IFNγ were performed by using standard methods.
(§3) The T cells columns indicate whether T cells were transduced with Luc90-CD828Z, Luc63-CD828Z, or were untransduced. The % CAR^+ in Table B-1 was determined by staining the T cells with Protein L. Except for the % CAR^+ column, all values are pg/mL of IFN-gamma. T cells that were either untransduced or transduced with one of the indicated CARs were cultured with target cells overnight and a standard IFN-gamma ELISA was performed on the culture supernatant.
(§4) All values are pg/mL of IFN-gamma. T cells that were either untransduced or transduced with one of the indicated CARs were cultured with target cells overnight, and a standard IFN-gamma ELISA was performed on the culture supernatant.
(§5) The values in the cells are pg/mL of IFN-gamma. T cells that were either untransduced or transduced with one of the indicated CARs were cultured with target cells overnight, and a standard IFN-gamma ELISA was performed on the culture supernatant. The concentrations of 0, 50, or 200 ng/mL at the top of each column indicates the concentration of soluble SLAMF7 added to all T cell plus target cell overnight cultures in that column. The soluble SLAMF7 was added at the beginning of the overnight culture.

T cells only = experiment: IFN-gamma ELISA, T cells only (no target cells); type: cell-based, human
Method: as §2, §3, §4, §5

[1] = system: IC9-Luc90-CD828Z CAR T cells; experiment: AP1903 abrogation of CAR T-cell activity in MM.1S tumor-bearing mice; type: in vivo, NSG mice; conditions: 2×10^6 IC9-Luc90-CD828Z T cells plus vehicle control
Method: First, MM.1S human SLAMF7^+ multiple myeloma cell line tumors were established in immunodeficient mice. In this model, the MM.1S cells formed a solid cutaneous mass. Measurable tumors were allowed to develop over 7 days, and then the mice were treated with a single intravenous infusion of MSGV1-IC9-Luc90-CD828Z-transduced human T cells. NSG mice (NOD.Cg-Prkdc^scid Il2rg^tm1Wjl/SzJ) from The Jackson Laboratory, Bar Harbor, Me., were used. Mice received intradermal injections of 4×10^6 MM.1S cells. The cells were suspended in a 1:1 mixture of MATRIGEL™ gelatinous protein mixture (BD Biosciences) and PBS (Phosphate-buffered saline) for injection. Tumors were allowed to grow for 7 days, and then each mouse received a single intravenous infusion of human T cells that were transduced with one of 3 CARs: IC9-Luc90-CD828Z (suicide gene+anti-SLAMF7 CAR), Luc90-CD828Z (anti-SLAMF7 CAR alone), or a negative-control anti-CD19 CAR Hu19-CD828Z. A 4th group was left untreated. All groups included 5 mice. After CAR T-cell infusion, the tumors were measured with calipers every 3 days. The longest length and the length perpendicular to the longest length and the tumor thickness were multiplied together to obtain the tumor volume in mm^3. When the longest length reached 15 mm, mice were sacrificed. Animal studies were approved by the National Cancer Institute Animal Care and Use Committee.
MM.1S tumors were established in NSG mice as described in Example 9. The mice were treated with 2×10^6 IC9-Luc90-CD828Z T cells. The mice received 5 mg/kg of AP1903 intraeritoneally for either 3 days or 12 days after the CAR T-cell infusion. […] Also levels of IC9-Luc90-CD828Z CART cells in the mice receiving AP1903 were reduced as compared to the mice receiving the vehicle.

293T = experiment: IFN-gamma ELISA, CAR T cells with 293T target cells; type: cell-based, human; conditions: Table B-1; SLAMF7-negative cell line
Excerpt: as §1
(§6) One-hundred thousand SLAMF7^+ or SLAMF7-negative target cells were combined with 100,000 CAR-transduced T cells in duplicate wells of a 96 well round bottom plate in 200 µL of AIM V™ medium (Invitrogen) plus 5% human serum. […]
(§7) The T cells columns indicate whether T cells were transduced with Luc90-CD828Z, Luc63-CD828Z, or were untransduced. The % CAR^+ in Table B-1 was determined by staining the T cells with Protein L. Except for the % CAR^+ column, all values are pg/mL of IFN-gamma. […]

HepG2 = experiment: IFN-gamma ELISA, CAR T cells with HepG2 target cells; type: cell-based, human; conditions: Table B-1
Excerpt: as §1, §6, §7

Panc 10.05 = experiment: IFN-gamma ELISA, CAR T cells with Panc 10.05 target cells; type: cell-based, human; conditions: Table B-2
Excerpt: as §1, §6, §7

SLAMF7^+ target cells = experiment: IFN-gamma ELISA and functional assays; type: cell-based, human
Method: as §2
CAR-expressing T cells cultured alone produced very low levels of IFNγ. IFNγ production of T cells expressing a CAR with a 4-1BB moiety, Luc90-CD8BBZ, was compared to IFNγ production of T cells expressing Luc90-CD828Z (Table C). […] Low levels of soluble SLAMF7 are found in the serum of some MM patients (see Tai, et al., Blood, 112(4): 1329-1337 (2008)). IFNγ ELISA assays were conducted to determine if adding SLAMF7 to cultures of anti-SLAMF7 CAR T cells plus target cells could block IFNγ release by the CAR T cells (Table D). IFNγ release by the CART cells was used as a measure recognition of the SLAMF7^+ target cells by the CAR T cells. The concentrations of soluble SLAMF7 added to the cultures were similar to those found in the blood of patients. Blocking of SLAMF7^+ target cell recognition by the soluble SLAMF7 was not observed. Also, activation of the anti-SLAMF7 CAR T cells by the soluble SLAMF7 was not observed.

IC9-Luc90-CD828Z: CAR plus suicide gene construct (SEQ ID NO: 31): IC9 suicide gene 5′ to the CAR, T2A, Luc90-CD828Z
IFN-gamma, NGFR-K562 (NGFR-K562; Table E): 30 pg/mL
IFN-gamma, T-cells Alone (T cells only; Table E): 38 pg/mL
tumor outcome in mice receiving vehicle instead of AP1903 [1]: tumor elimination

Luc90-CD828Z: anti-SLAMF7 CAR (SEQ ID NO: 27): murine Luc90 scFv, human CD8a hinge and TM, CD28 and CD3ζ domains; tested as transduced T cells
IFN-gamma, target cells 293T (293T): 37 pg/mL
IFN-gamma, target cells HepG2 (HepG2): 24 pg/mL
IFN-gamma, target cells Panc 10.05 (Panc 10.05): 36 pg/mL
IFN-gamma, target cells NGFR-K562 (NGFR-K562; Table B-2, SLAMF7-negative): 45 pg/mL
IFN-gamma, target cells NGFR-K562 (NGFR-K562; Table C): 26 pg/mL
IFN-gamma, target cells NGFR K562 0 ng/ml (NGFR-K562; Table D, soluble SLAMF7 added 0 ng/ml): 267 pg/mL
IFN-gamma, target cells NGFR K562 50 ng/ml (NGFR-K562; Table D, soluble SLAMF7 added 50 ng/ml): 223 pg/mL
IFN-gamma, target cells NGFR K562 200 ng/ml (NGFR-K562; Table D, soluble SLAMF7 added 200 ng/ml): 224 pg/mL
IFN-gamma, T cells only (T cells only; Table B-2): 29 pg/mL
IFN-gamma, T cells only (T cells only; Table C): 33 pg/mL
IFN-gamma, T cells 0 ng/ml (T cells only; Table D, no target cells, soluble SLAMF7 0 ng/ml): 172 pg/mL
IFN-gamma, T cells 50 ng/ml (T cells only; Table D, no target cells, soluble SLAMF7 50 ng/ml): 160 pg/mL
IFN-gamma, T cells 200 ng/ml (T cells only; Table D, no target cells, soluble SLAMF7 200 ng/ml): 41 pg/mL
function of T cells expressing the CAR, overall comparison (SLAMF7^+ target cells; ELISA assays and CD107a degranulation experiments, versus huLuc63-CD828Z): superior
SLAMF7-specific IFNγ release, comparison of CARs (SLAMF7^+ target cells; Luc90-CD828Z versus huLuc63-CD828Z, most experiments): greater
